Measurements reported in patent US5182378A, “Sulfate derivatives of galactan extracted from Klebsiella” (Roussel Uclaf, priority 1989, dated 1993).

Key:
[1] = test system: syncitia formation in co-culture of H 9 III cells (chronically infected) with SUP T1 cells; assay: Inhibition of syncitia (co-culture of H 9 III cells with SUP T1 cells); format: cell-based, HIV; settings: for Percentage of inhibition (syncitia), H 9 III cells: H 9 III cells pre-incubated with product one night at 37° C. before co-culture; for Percentage of inhibition (syncitia), Sup Ti cells: Sup Ti cells pre-incubated with product one night at 37° C. before co-culture; for Percentage of inhibition (syncitia), Test no. 1 / Percentage of inhibition (syncitia), Test no. 2: co-culture with product without previous incubation
Method: The activity of the sulfate derivative of galactan extracted from Klebsiella was determined by measurement of the inhibition of syncitia [Gruters et al, Nature, Vol. 330, p. 74 to 77, (5 Nov. 1987)] and by determination of the protective activity exercised vis-a-vis certain cell cultures.
A co-culture of H 9 III cells (chronically infected 10^5 cells/ml) with SUP T1 cells (non-infected: 2×10^5 cells/ml) was carried out and there was syncitia formation which was counted with a microscope. Each type of cell was pre-incubated or non-preincubated with the studied product for one night at 37° C. If there was no pre-incubation, the studied product was added to cells at the moment the culture was carried out. When there was inhibition of Syncitia formation in the treated cells relative to the control cells, the studied product was protective. The results obtained are shown hereafter.

HIV virus (MT4 cells) = assay: MT4 / MTT test (inhibition of the infection of MT4 cells); format: cell-based; settings: 7 days at 37° C., MTT reading
Method: technique: 100 microliter dilutions of the virus in series in a microtitration plate addition of 100 microliters of cellular suspension containing 5×10^4 MT4 cells culture 7 days at 37° C., 5% CO2 addition of MTT (tetrazolium salt viability coloring agent) incubation 4 hours at 37° C. halting the reaction by the addition of a hydrochloric acid solution in isopropane reading of the optical density (OD) at 540 nm (after dissolution of the crystals).
MT4 cells at 10^6 cells/ml were used and dilution to 1/2 took place with or without the studied product at different concentrations. 100 microliters of HIV virus at different dilutions and 100 microliters of pre-treated cell suspension were introduced onto a microtitration plate. Incubation took place at 37° C. for 7 days and the MTT was added and a reading was taken with a spectrophotometer. The percentage inhibition of the infection of MT4 cells was determined and the results are shown hereafter: […]

HIV virus (H9 cells) = assay: H9 test (reverse transcriptase on supernatant and immunofluorescence on cells); format: cell-based; settings: D+11; for Reverse Transcriptase % inhibition / Reverse Transcriptase cpm/cm^3 × 10^4: H9 cells supernatant; for Immunofluorescence % fluorescent cells / Immunofluorescence % inhibition: H9 cells
Method: H9 cells were used which were treated with polybrene, washed, and taken up in 100 microliters of medium, with or without the studied product at different concentrations. After incubating for 2 hours at 37° C. 100 microliters of HIV virus at 1/10 were added and the mixture was kept for 1 hour at 37° C. and then washed. The cells were taken up in 1 ml of medium with or without the studied product, and distributed into 2 wells, 500 microliters per well and 2×10^5 cells by well. On D+4, 500 microliters of culture medium with or without the studied product were added. On D+8, half of the supernatant was replaced with new medium. On D+11, a quantitative analysis by reverse transcriptase was carried out on the supernatant and an immunofluorescent determination was carried out on the cells. The results are shown hereafter.

Sulfate derivative of the qalactan extracted from Klebsiella [Example 1]
Percentage of inhibition (syncitia), H 9 III cells ([1]; 1 micrograms/cm^3): 17%
Percentage of inhibition (syncitia), Sup Ti cells ([1]; 1 micrograms/cm^3): 23%
Percentage of inhibition (syncitia), Test no. 1 ([1]; 1 micrograms/cm^3): 0%
Percentage of inhibition (syncitia), Test no. 2 ([1]; 1 micrograms/cm^3): 10%
Percentage of inhibition (syncitia), H 9 III cells ([1]; 10 micrograms/cm^3): 23%
Percentage of inhibition (syncitia), Sup Ti cells ([1]; 10 micrograms/cm^3): 27%
Percentage of inhibition (syncitia), Test no. 1 ([1]; 10 micrograms/cm^3): 42%
Percentage of inhibition (syncitia), Test no. 2 ([1]; 10 micrograms/cm^3): 17%
Percentage of inhibition (syncitia), H 9 III cells ([1]; 100 micrograms/cm^3): 100%
Percentage of inhibition (syncitia), Sup Ti cells ([1]; 100 micrograms/cm^3): 100%
Percentage of inhibition (syncitia), Test no. 1 ([1]; 100 micrograms/cm^3): 100%
Percentage of inhibition (syncitia), Test no. 2 ([1]; 100 micrograms/cm^3): 100%
Percentage of inhibition of the infection of MT4 cells (HIV virus (MT4 cells); 1 micrograms/cm^3): 74%
Percentage of inhibition of the infection of MT4 cells (HIV virus (MT4 cells); 10 micrograms/cm^3): 99%
Percentage of inhibition of the infection of MT4 cells (HIV virus (MT4 cells); 100 micrograms/cm^3): 84%
Reverse Transcriptase % inhibition (HIV virus (H9 cells); 1 micrograms/cm^3): 76%
Reverse Transcriptase cpm/cm^3 × 10^4 (HIV virus (H9 cells); 1 micrograms/cm^3): 6.42 cpm/cm^3 × 10^4
Immunofluorescence % fluorescent cells (HIV virus (H9 cells); 1 micrograms/cm^3): 3%
Immunofluorescence % inhibition (HIV virus (H9 cells); 1 micrograms/cm^3): 94%
Reverse Transcriptase % inhibition (HIV virus (H9 cells); 10 micrograms/cm^3): 100%
Reverse Transcriptase cpm/cm^3 × 10^4 (HIV virus (H9 cells); 10 micrograms/cm^3): 1.16 cpm/cm^3 × 10^4
Immunofluorescence % fluorescent cells (HIV virus (H9 cells); 10 micrograms/cm^3): 0%
Immunofluorescence % inhibition (HIV virus (H9 cells); 10 micrograms/cm^3): 100%
Reverse Transcriptase % inhibition (HIV virus (H9 cells); 100 micrograms/cm^3): 100%
Reverse Transcriptase cpm/cm^3 × 10^4 (HIV virus (H9 cells); 100 micrograms/cm^3): 1.12 cpm/cm^3 × 10^4
Immunofluorescence % fluorescent cells (HIV virus (H9 cells); 100 micrograms/cm^3): 0%
Immunofluorescence % inhibition (HIV virus (H9 cells); 100 micrograms/cm^3): 100%
